Measured values: patent US20100292222A1, “CHEMICAL COMPOUNDS 751” (ASTRAZENECA AB, priority 2009, published 2010)

target: T1, Androgen Receptor (AR) (Homo sapiens, UniProt P10275, T878A); assay: LNCaP Androgen Receptor Down-Regulation Cell Assay; type: cell-based; details: LNCaP prostate carcinoma cell line; 20-22 hours incubation; immunofluorescence; 50% reduction of the AR signal
T1 construct: cell based immuno-fluorescence assay using the LNCaP prostate epithelial cell line; host or cells: LNCaP clone FGC prostate carcinoma cells
T1 sequence (P10275 1-920 T878A): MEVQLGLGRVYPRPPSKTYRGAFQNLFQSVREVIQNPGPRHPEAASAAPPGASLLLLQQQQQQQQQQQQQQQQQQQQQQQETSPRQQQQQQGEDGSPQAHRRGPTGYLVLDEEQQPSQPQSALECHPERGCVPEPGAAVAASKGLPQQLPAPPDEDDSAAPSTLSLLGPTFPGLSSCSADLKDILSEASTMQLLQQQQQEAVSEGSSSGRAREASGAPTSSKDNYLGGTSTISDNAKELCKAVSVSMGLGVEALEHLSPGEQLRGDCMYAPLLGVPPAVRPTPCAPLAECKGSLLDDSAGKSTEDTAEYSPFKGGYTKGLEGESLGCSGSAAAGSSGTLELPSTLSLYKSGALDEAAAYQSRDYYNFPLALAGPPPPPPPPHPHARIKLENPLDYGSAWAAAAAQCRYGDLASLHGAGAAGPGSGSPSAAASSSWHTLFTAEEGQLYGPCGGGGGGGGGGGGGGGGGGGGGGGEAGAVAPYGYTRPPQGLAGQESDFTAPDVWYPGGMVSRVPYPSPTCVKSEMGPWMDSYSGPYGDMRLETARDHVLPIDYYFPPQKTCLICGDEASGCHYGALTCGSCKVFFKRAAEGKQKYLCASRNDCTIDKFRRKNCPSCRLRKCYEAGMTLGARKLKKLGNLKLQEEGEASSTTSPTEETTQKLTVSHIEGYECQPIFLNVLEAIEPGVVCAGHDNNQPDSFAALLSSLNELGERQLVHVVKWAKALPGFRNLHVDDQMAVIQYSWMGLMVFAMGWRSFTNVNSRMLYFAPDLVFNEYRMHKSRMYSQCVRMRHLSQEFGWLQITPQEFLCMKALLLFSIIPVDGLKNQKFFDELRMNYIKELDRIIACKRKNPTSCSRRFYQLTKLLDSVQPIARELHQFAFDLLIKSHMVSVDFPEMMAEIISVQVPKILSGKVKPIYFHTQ
Description: The ability of compounds to reduce Androgen Receptor (AR) numbers was assessed in a cell based immuno-fluorescence assay using the LNCaP prostate epithelial cell line.
This immunofluorescence end point assay measures the ability of a test compound to down-regulate and reduce measured levels of the AR in the LNCaP prostate carcinoma cell line (LNCaP clone FGC (CRL-1740) obtained from the American Type Culture Collection (ATCC)).
LNCaP cells were cultured in Growth Medium (phenol red free Roswell Park Memorial Institute (RPMI) 1640 (Invitrogen Code no. 11835-063) containing 2 mM L-Glutamine (Invitrogen Code no. 25030-024) and 1% (v/v) Penicillin/Streptomycin (10000 units/ml Penicillin and 10000 μg/ml of Streptomycin utilising penicillin G (sodium salt) and streptomycin sulphate: prepared in normal saline, Invitrogen Code no. 15140122) and 10% (v/v) foetal bovine serum (FBS)) in a 5% CO2 air incubator at 37° C. Cells for assay were harvested from T175 stock flasks by washing once in PBS (phosphate buffered saline, pH 7.4) (Invitrogen Code no. 14190-094) and harvested using 5 mls of 1× Trypsin/ethylaminediaminetetraacetic acid (EDTA) (10× Trypsin-EDTA, 5.0 g/L Trypsin, 2.0 g/L of EDTA•4Na and 8.5 g/L of NaCl, without Phenol Red, Invitrogen Code no. 15400-054) diluted in PBS solution. A 5 ml volume of Growth Medium was added to each flask (as above except that 5% (v/v) charcoal stripped FBS (HyClone Code no. SH30068.03) was included instead of 10% (v/v) FBS). Cells were syringed at least twice using a sterile 18G×1.5″ (1.2×40 mm) broad gauge needle and cell density was measured using a haemocytometer. Cells were further diluted in Growth Medium plus 5% (v/v) charcoal stripped FBS and seeded at a density of 6.5×10^3 cells per well (in 90 ul) into transparent, black, tissue culture treated 96 well plates (Packard, No. 6005182).
Test data reported herein was generated using two different compounds preparation and dosing methods. In method (1) a 10 mM compound stock solution in 100% (v/v) DMSO was serially diluted in 4-fold steps in 100% (v/v) DMSO using a Thermo Scientific Matrix SerialMate. The diluted compounds were then further diluted 1 in 30 in assay media using a Thermo Scientific Matrix PlateMate and a 10 μl aliquot of this dilution was dosed to cells manually using a multi-channel pipette. In method (2) starting with a 10 mM compound stock solution, the Labcyte Echo 550 was used to generate a compound concentration response set diluted in 30 μl of assay media. The Echo 550 is a liquid handler that uses acoustic technology to perform direct microplate-to-microplate transfers of DMSO compound solutions. The system can be programmed to transfer volumes as low as […] in multiple increments between microplates and in so doing generates a serial dilution of compound which is then back-filled to normalise the DMSO is concentration across the dilution range. A 10 μl volume of diluted compound is then dosed to cells using a Thermo Scientific Matrix PlateMate.
Plates were incubated overnight at 37° C., 5% CO2. Wells were then dosed with compound prepared by one of the 2 methods above and further incubated for 20-22 hours at 37° C., 5% CO2. Plates were fixed by the addition of 20 μl of 10% (v/v) formaldehyde solution (in PBS) to each well (final formaldehyde conc.=1.67% (v/v)) and left at room temperature for 10 mins. This fixative solution was removed and cells were washed with 250 μl of PBS/0.05% (v/v) Tween 20 (PBST) using an automated plate washer. This process was then repeated twice more.
Immunostaining was performed at room temperature. Cells were permeabilised by the addition of 35 μl of PBS containing 0.5% Tween 20 and incubated for 1 hour at room temperature. Permeabilisation solution was removed and cells were washed with 250 μl of PBST using an automated plate washer. This process was then repeated twice more. […]

Compound	IC50 [nM]
CC(=O)N1CCN([C@H](C)COc2ccc(C3(O)CCN(c4ccc5nnc(C(F)(F)F)n5n4)CC3)cc2)CC1 (single isomer, unassigned) [Example 43, 4-{4-[2-(4-acetylpiperazin-1-yl)propoxy]phenyl}-1-[3-(trifluoromethyl)[1,2,4]triazolo[4,3-b]pyridazin-6-yl]piperidin-4-ol]	84
CC(=O)N1CCN([C@H](C)COc2ccc(C3(O)CCN(c4ccc5nnc(C(F)(F)F)n5n4)CC3)cc2)CC1 (single isomer, unassigned) [Example 44, 4-{4-[2-(4-acetylpiperazin-1-yl)propoxy]phenyl}-1-[3-(trifluoromethyl)[1,2,4]triazolo[4,3-b]pyridazin-6-yl]piperidin-4-ol]	36
CC(=O)N1CCCN([C@H](C)COc2ccc(C3(O)CCN(c4ccc5nnc(C(F)(F)F)n5n4)CC3)cc2)CC1 (single isomer, unassigned) [Example 45, 4-{4-[2-(4-acetyl-1,4-diazepan-1-yl)propoxy]phenyl}-1-[3-(trifluoromethyl)[1,2,4]triazolo[4,3-b]pyridazin-6-yl]piperidin-4-ol]	82
CC(=O)N1CCCN([C@H](C)COc2ccc(C3(O)CCN(c4ccc5nnc(C(F)(F)F)n5n4)CC3)cc2)CC1 (single isomer, unassigned) [Example 46, 4-{4-[2-(4-acetyl-1,4-diazepan-1-yl)propoxy]phenyl}-1-[3-(trifluoromethyl)[1,2,4]triazolo[4,3-b]pyridazin-6-yl]piperidin-4-ol]	18
CC(=O)N1CCN(CCCOc2ccc(N3CCN(c4ccc5nnc(C(F)(F)F)n5n4)CC3)cc2)CC1 [Example 1.1, 6-(4-{4-[3-(4-acetylpiperazin-1-yl)propoxy]phenyl}piperazin-1-yl)-3-(trifluoromethyl)[1,2,4]-triazolo[4,3-b]pyridazine]	1500
CN1CCN(CCOc2ccc(C3CCN(c4ccc5nnc(C(F)(F)F)n5n4)CC3)cc2)CC1=O [Example 2, 1-methyl-4-[2-(4-{1-[3-(trifluoromethyl)[1,2,4]-triazolo[4,3-b]pyridazin-6-yl]piperidin-4-yl}phenoxy)ethyl]piperazin-2-one]	310
CN1CCN(CCOc2ccc(C3(O)CCN(c4ccc5nnc(C(F)(F)F)n5n4)CC3)cc2)CC1=O [Example 3, 4-[2-(4-[4-hydroxy-1-[3-(trifluoromethyl)[1,2,4]-triazolo[4,3-b]pyridazin-6-yl]piperidin-4-yl]phenoxy)ethyl]-1-methylpiperazin-2-one]	360
CN1CCN(CCOc2ccc(N3CCN(c4ccc5nnc(C(F)(F)F)n5n4)CC3)cc2)CC1=O [Example 4, 1-methyl-4-[2-(4-{4-[3-(trifluoromethyl)[1,2,4]triazolo[4,3-b]pyridazin-6-yl]piperazin-1-yl}phenoxy)ethyl]piperazin-2-one]	5700
O=C1CN(CCOc2ccc(N3CCN(c4ccc5nnc(C(F)(F)F)n5n4)CC3)cc2)CCN1C1CC1 [Example 5, 1-cyclopropyl-4-[2-(4-{4-[3-(trifluoromethyl)[1,2,4]-triazolo[4,3-b]pyridazin-6-yl]piperazin-1-yl}phenoxy)ethyl]piperazin-2-one]	7800
O=C1CN(CCOc2ccc(C3CCN(c4ccc5nnc(C(F)(F)F)n5n4)CC3)cc2)CCN1C1CC1 [Example 6, 1-cyclopropyl-4-[2-(4-{1-[3-(trifluoromethyl)[1,2,4]-triazolo[4,3-b]pyridazin-6-yl]piperidin-4-yl}phenoxy)ethyl]piperazin-2-one]	510
CN1CCN(CCOc2ccc(N3CCN(c4ccc5nnc(C(F)(F)F)n5n4)CC3)cc2)C(=O)C1 [Example 7, 4-methyl-1-[2-(4-{4-[3-(trifluoromethyl)[1,2,4]-triazolo[4,3-b]pyridazin-6-yl]piperazin-1-yl}phenoxy)ethyl]piperazin-2-one]	6500
CN1CCN(CCOc2ccc(C3CCN(c4ccc5nnc(C(F)(F)F)n5n4)CC3)cc2)C(=O)C1 [Example 8, 4-methyl-1-[2-(4-{1-[3-(trifluoromethyl)[1,2,4]triazolo[4,3-b]pyridazin-6-yl]piperidin-4-yl}phenoxy)ethyl]piperazin-2-one]	1000
CN1CCN(CCCOc2ccc(C3CCN(c4ccc5nnc(C(F)(F)F)n5n4)CC3)cc2)CC1=O [Example 9, 1-methyl-4-[3-(4-{1-[3-(trifluoromethyl)[1,2,4]triazolo[4,3-b]pyridazin-6-yl]piperidin-4-yl}phenoxy)propyl]piperazin-2-one]	300
O=C1CN(CCCOc2ccc(C3CCN(c4ccc5nnc(C(F)(F)F)n5n4)CC3)cc2)CCN1C1CC1 [Example 10, 1-cyclopropyl-4-[3-(4-{1-[3-(trifluoromethyl)[1,2,4]triazolo[4,3-b]pyridazin-6-yl]piperidin-4-yl}phenoxy)propyl]piperazin-2-one]	410
CN1CCN(CCOc2ccc(C3CCN(c4ccc5nnc(C(F)(F)F)n5n4)CC3)cn2)CC1=O [Example 11, 1-methyl-4-{2-[(5-{1-[3-(trifluoromethyl)[1,2,4]triazolo[4,3-b]pyridazin-6-yl]piperidin-4-yl}pyridin-2-yl)oxy]ethyl}piperazin-2-one]	1600
CN1CCN(CCOc2ccc(C3(O)CCN(c4ccc5nnc(C(F)(F)F)n5n4)CC3)cc2F)CC1=O [Example 12, 4-[2-(2-fluoro-4-{4-hydroxy-1-[3-(trifluoromethyl)[1,2,4]triazolo[4,3-b]pyridazin-6-yl]piperidin-4-yl}phenoxy)ethyl]-1-methylpiperazin-2-one]	670
CN1CCN(CCOc2ccc(C3CCN(c4ccc5nnc(C(F)(F)F)n5n4)CC3)cc2F)CC1=O [Example 13, 4-[2-(2-fluoro-4-{1-[3-(trifluoromethyl)[1,2,4]triazolo[4,3-b]pyridazin-6-yl]piperidin-4-yl}phenoxy)ethyl]-1-methylpiperazin-2-one]	310
CC(=O)N1CCCN(CCOc2ccc(C3CCN(c4ccc5nnc(C(F)(F)F)n5n4)CC3)cc2)CC1 [Example 14, 6-(4-{4-[2-(4-acetyl-1,4-diazepan-1-yl)ethoxy]phenyl}piperidin-1-yl)-3-(trifluoromethyl)[1,2,4]-triazolo[4,3-b]pyridazine]	160
